Experimental findings from US20230348487A1, “2-AMINOPYRIMIDINE COMPOUND AND PHARMACEUTICAL COMPOSITION THEREOF AND APPLICATION THEREOF” (GUANGZHOU SALUSTIER BIOSCIENCES CO., LTD., priority 2021, published 2023) are described below.

Data set [1] is described as follows: In vivo pharmacokinetic properties in rats. Further details: species or system SD rats. To be noted: rat. The method, then:
Species: SD rats, SPF grade.
Number of rats: 3 in each group, male.
The animals in the oral administration group were fasted overnight (10-14 hours) before administration, and were fed 4 hours after administration. The animals were weighed before administration, and the dosage was calculated based on body weight. The drug was administered intravenously (iv, 5 mg/kg) or orally by gavage (po, 15 mg/kg). Blood was collected from jugular vein at 0.083 h, 0.25 h, 0.5 h, 1 h, 2 h, 4 h, 6 h, and 8 h after administration. About 0.20 mL of each sample was collected, anticoagulated with heparin sodium, placed on ice after collection, and centrifuged to separate plasma within 1 hour (centrifugation condition: 6800 g, 6 minutes, 2-8° C.). Plasma samples were stored in a −80° C. freezer until analysis. […] Pharmacokinetic parameters were calculated using Phoenix WinNonlin7.0 based on the blood drug concentration data at different time points, providing the pharmacokinetic parameters and their average values, and standard deviations.

Data set [2] deals with U937 cells. Briefly: Cell apoptosis detection in U937 cells. It is filed as cell-based, human. To be noted: 48 hours. The method, then: Cell apoptosis detection: Took cells in good growth status and adjusted the density to 8×10^5 cells/mL, evenly distributed them into 6-well plates, 2 mL per well. Then the compound was diluted in gradient and added to the cell suspension, and placed in the incubator for 48 hours. PE coupled Annexin V apoptosis detection kit was used for staining in this experiment. After 48 hours, cells were collected into a 15 mL centrifuge tube, and the 6-well plate was washed twice with PBS. The washing solutions were merged into a 15 mL centrifuge tube, centrifuged at 1200 rpm for 5 minutes, and the supernatant was discarded. The cells were washed with 1.5 mL of cold PBS and resuspended and transferred to a 1.5 mL EP tube. Repeated washing with cold PBS once and after centrifugation at 1200 rpm for 5 minutes, discarded the supernatant. Added 100 μL of 1×Binding Buffer (PBS dilution) to resuspend the cells. Added 2.5 μL of Annexin V-PE and 2.5 μL 7-AAD, mixed gently and reacted at room temperature in the dark for 15 minutes. Added 400 μL of 1× Binding Buffer, and then perform detection with an up-flow cytometry within 1 hour. Note: It is necessary to set up a single label control tube with apoptotic cells, and sample tubes with the same conditions; place the stained samples on ice.

For data set [3], the system named is human chronic myeloid leukemia cell line K562. As to the kind of experiment: CCK-8 in vitro proliferation inhibition. Format: cell-based. To be noted: Homo sapiens, K562, 72 hours, read-out: Inhibitory activity (IC50) on cell proliferation, K562.
For data set [4], the system named is human acute myeloid leukemia cell line U937. Briefly: CCK-8 in vitro proliferation inhibition. To be noted: Homo sapiens, U-937, 72 hours, read-out: Inhibitory activity (IC50) on cell proliferation, U937. It is filed as cell-based.
Data set [5] concerns JAK3-STAT signaling in U937 cells. As to the kind of experiment: Western blot of JAK3-STAT signaling in U937 cells. Format: cell-based, human. How it is done:
Cell line: human acute myeloid leukemia cell line U937
Time dependent experiment: the tested molecule LS6-45 was co-incubated with U937 cells at a fixed concentration (100 nM), and the total cell protein was extracted at a specific action time. Dose dependent experiment: After co-incubating the tested molecule LS6-45 at different concentrations with U937 cell line for 10 hours, the total cell protein was extracted. Suspended cells U937 were centrifuged to remove the supernatant, washed twice with PBS, and then added an appropriate amount of lysate mixture (RIPA lysate (strong): phosphatase inhibitor mixture (50×): PMSF=100:1:1), lysed for 30 minutes on ice, and centrifugated at 12000 rpm at 4° C. for 15 min). Took the supernatant and discarded the sediment. Took an appropriate amount of supernatant to measure the protein concentration by the BCA method. Then added loading buffer at a 5:1 ratio and boiled at 100° C. for 7 minutes to be used for Western Blot experiments or stored in a −80° C. freezer for later use.
The experimental results are shown in FIG. 4, wherein the Western Blot analysis of compound LS6-45 on JAK3, STAT3, STAT5 proteins and their time/dose-dependent phosphorylation was performed, and GAPDH was used as an internal reference. In FIG. 4, A represents the U937 cell line treated with compound LS6-45 (100 nM) in a time-dependent manner, while B represents the U937 cell line treated with compound LS6-45 in a dose-dependent manner for 10 hours (diluted at five concentrations of 800 nM 1:4).
(In western blotting, separated proteins are transferred to a membrane and probed.)

Data set [6] relates to U937 cells. As to the kind of experiment: Cell cycle detection in U937 cells. It is filed as cell-based, human. To be noted: 24 hours. How it is done:
Cell cycle detection: Took cells in good growth status and adjusted the density to 8×10^5 cells/mL, and evenly distributed them into 6-well plates, 2 mL per well. Then the compound was diluted in gradient and added to the cell suspension, and incubated in an incubator for 24 hours. BD Cycletest™ Plus DNA Reagent Kit was used for staining in this experiment. After 24 hours, the cells were collected into a 15 mL centrifuge tube, and the 6-well plate was washed twice with PBS. The washing solutions were merged into a 15 mL centrifuge tube, centrifuged at 12000 rpm for 5 minutes, and the supernatant was discarded. Added 5 mL of buffer solution to each tube and the cells were gently resuspended. Centrifuge: 12000 rpm for 5 minutes, the supernatant was carefully removed and left about 50 μL of liquid without discarding. Added 1.5 mL of buffer solution to each tube to gently resuspend the cells, which were carefully transferred to a 1.5 mL EP tube. Adjusted the cell concentration to 1×10^6 cells/mL, to meet the requirements of 5×10^5 cells to complete this experiment. Centrifuged at 1200 rpm for 5 minutes, and the supernatant was carefully aspirated. Added 125 μL of Solution A, mixed gently and reacted at room temperature for 10 minutes. Added 100 μL of Solution B, mixed gently and reacted at room temperature for 10 minutes. […]

For the compound `C=CC(=O)Nc1cc(Nc2ncc(Cl)c(O[C@@H]3CO[C@H]4[C@@H]3OC[C@H]4OC)n2)ccc1N(C)CCN(C)C` [LS 6-45], the clearance in data set [1] (male, SD, plasma, iv 5 mg/kg) turned out to be 155 ± 2.83 mL/min/kg. For the same compound, the “AUC(0-∞)” value in data set [1] (iv 5 mg/kg) was 536.99 ± 9.89 ng·h/mL; in data set [1] (po 15 mg/kg), 333.50 ± 45.52 ng·h/mL. For the same compound, the Cmax in data set [1] (iv 5 mg/kg) is listed as 911.33 ± 139.73 ng/mL; in data set [1] (po 15 mg/kg) it was 238.28 ± 13.68 ng/mL. Also, the “F (oral availability)” value was determined as 20.66 ± 2.83% in data set [1] (po 15 mg/kg) and 20.66% in data set [1] (po 15 mg/kg, listed as LS6-45). Further, the cell apoptosis result in data set [2] is on record as “No apoptosis was observed”. Moreover, the figures for the IC50 in data set [3] and in data set [4] were 335 nM and 20.2 nM, respectively. For the same compound, the “phosphorylation level of JAK3 (Western blot)” value in data set [5] (50 nM, 10 hours) was “significantly weakened”; in data set [5] (200 nM, 10 hours), “almost completely disappeared”. Also, in data set [5] (100 nM, 4 hours), the “phosphorylation level of JAK3 protein (Western blot)” value is recorded as “effectively reduced the phosphorylation level of JAK3 protein”. In data set [5] (100 nM, around 8 hours), the “JAK3 phosphorylation (Western blot)” value is recorded as “completely inhibited JAK3 phosphorylation”. Also, the “phosphorylation levels of downstream proteins STAT3 and STAT5” value in data set [5] (100 nM, time course) is listed as “weakened in a time-dependent manner”; in data set [5] (different concentrations, 10 hours), “dose-dependent weakening”. The “cell cycle related proteins (CDK2, CDK4, CDK6, Cyclin B1, Cyclin D3, Cyclin E1)” value in data set [6] was “significantly down-regulated”. Besides, the cell cycle entry in data set [6] (different concentrations) was “obvious G0/G1 phase block”.

As a reminder, the clearance is the rate of elimination divided by the concentration. Low readings indicate a low capacity for elimination, high ones a high capacity for elimination. A word on the Cmax: it is the highest concentration seen after dosing.
